This passage reports TGI and GI50 results from PubChem BioAssay (NCI).

Some test systems named below: NCI/ADR-RES ovarian; SK-OV-3 ovarian; RXF 393 renal; A549 NSCLC; UO-31 renal; NCI-H460 lung; OVCAR-4 ovarian; COLO 205 colon; MOLT-4 leukemia; SK-MEL-28 melanoma; UACC-257 melanoma; SF-295 CNS; OVCAR-8 ovarian; MALME-3M melanoma; MDA-MB-435.
What all share (assay): inhibition of tumour cell growth, NCI panel, 48 h

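Interpolation was linear, between the two tested concentrations surrounding the appropriate level; five concentrations were tested over 48 hours in 96-well plates. The concentration for 50% growth inhibition is given as GI50. Definition used: TGI = concentration required for complete inhibition of growth.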

As to `NN/C(=N\S(=O)(=O)c1cccc2nsnc12)Nc1ccc(Cl)cc1`, the TGI with NCI/ADR-RES ovarian, with SK-OV-3 ovarian, in the experiment with RXF 393 renal, in the experiment on A549 NSCLC, with UO-31 renal and in the experiment on NCI-H460 lung was more than 100 µM each time. Besides, the TGI in the experiment with OVCAR-4 ovarian, in the experiment with COLO 205 colon, in the experiment on MOLT-4 leukemia, with SK-MEL-28 melanoma, with UACC-257 melanoma and in the experiment on SF-295 CNS was more than 100 µM throughout. The same compound gave a TGI with OVCAR-8 ovarian of more than 100 µM.
For `CCN1C(=O)C(N=[N+]=[N-])(c2ccccc2)C(=O)c2ccccc21` (stereo unspecified), the TGI in the experiment with SK-OV-3 ovarian, in the experiment on RXF 393 renal, in the experiment with A549 NSCLC, in the experiment on UO-31 renal, in the experiment with NCI-H460 lung and with OVCAR-4 ovarian was more than 100 µM each time. Moreover, the TGI in the experiment with COLO 205 colon, in the experiment with MALME-3M melanoma, in the experiment with MOLT-4 leukemia, in the experiment with SK-MEL-28 melanoma, with UACC-257 melanoma and with SF-295 CNS was more than 100 µM in each case.
With `CC(C(=O)N1C(=O)N(C(=O)[C@H](C)C(O)c2ccccc2)[C@H](c2ccccc2)[C@H]1c1ccccc1)[C@@H](O)c1ccccc1` (stereo partly specified), the TGI with SK-OV-3 ovarian was more than 100 µM; in the experiment with A549 NSCLC, more than 100 µM; in the experiment with UO-31 renal, more than 100 µM; in the experiment with NCI-H460 lung it was 78.1 µM; in the experiment on OVCAR-4 ovarian, more than 100 µM; in the experiment on COLO 205 colon, 33.2 µM. The TGI in the experiment on MDA-MB-435 was 54.3 µM; with SK-MEL-28 melanoma, more than 100 µM; in the experiment on UACC-257 melanoma, 84.4 µM; in the experiment with SF-295 CNS, more than 100 µM; in the experiment with OVCAR-8 ovarian it was more than 100 µM.
With `CC(=O)O[C@]12CCCCC1C1(O)C(O)CCCC[C@H]12` (stereo partly specified), the TGI with SK-OV-3 ovarian, with RXF 393 renal, in the experiment with A549 NSCLC, in the experiment with UO-31 renal, in the experiment on NCI-H460 lung and with OVCAR-4 ovarian was more than 100 µM each time. The TGI with COLO 205 colon, with MALME-3M melanoma, in the experiment on MOLT-4 leukemia, in the experiment with SK-MEL-28 melanoma, in the experiment with UACC-257 melanoma and in the experiment on SF-295 CNS was more than 100 µM throughout. In the experiment with OVCAR-8 ovarian, this compound had a TGI of more than 100 µM.
In the case of `OCCN1CCN(c2nc(Nc3ccc(-c4nc5ccccc5[nH]4)cc3)c3cn[nH]c3n2)CC1`, the GI50 with RXF 393 renal was 1.43 µM; in the experiment on UO-31 renal it was 1.64 µM; in the experiment with MDA-MB-435, 1.82 µM; with SK-MEL-28 melanoma, 1.65 µM; in the experiment with SF-295 CNS it was 1.88 µM. Moreover, the TGI turned out to be 2.85 µM in the experiment with RXF 393 renal; 3.14 µM in the experiment with UO-31 renal; 3.29 µM in the experiment on MDA-MB-435; 3.05 µM in the experiment on SK-MEL-28 melanoma; 3.31 µM with SF-295 CNS.
For the compound `COC(=O)C(C(=O)C(=O)Nc1ccc([N+](=O)[O-])cc1)c1nc2cc(C)c(C)cc2[nH]c1=O` (stereo unspecified), the TGI in the experiment with SK-OV-3 ovarian, in the experiment on RXF 393 renal, with A549 NSCLC, in the experiment on UO-31 renal, in the experiment on NCI-H460 lung and in the experiment on OVCAR-4 ovarian was more than 100 µM each time. In addition, the TGI in the experiment on COLO 205 colon, in the experiment on MALME-3M melanoma, in the experiment on MOLT-4 leukemia, in the experiment on SK-MEL-28 melanoma, with UACC-257 melanoma and in the experiment with SF-295 CNS was more than 100 µM throughout.
Regarding `Nc1ccn(CC(CO)CC(c2ccccc2)P(=O)(O)O)c(=O)n1` (stereo unspecified), the TGI in the experiment on SK-OV-3 ovarian, in the experiment on RXF 393 renal, with A549 NSCLC, in the experiment on UO-31 renal, in the experiment with NCI-H460 lung and with COLO 205 colon was more than 100 µM in each case. Moreover, the TGI in the experiment on MALME-3M melanoma, in the experiment on MOLT-4 leukemia, in the experiment with SK-MEL-28 melanoma, in the experiment with UACC-257 melanoma, in the experiment on SF-295 CNS and in the experiment with OVCAR-8 ovarian was more than 100 µM throughout.
In the case of `CCOc1ccc(N=Nc2c(-c3ccccc3)nn(C(=O)CC(=O)Nc3cccc(C)c3)c2-c2ccccc2)cc1`, the TGI in the experiment with SK-OV-3 ovarian, with RXF 393 renal, in the experiment with A549 NSCLC, with UO-31 renal, in the experiment with NCI-H460 lung and in the experiment on OVCAR-4 ovarian was more than 100 µM throughout. Besides, the TGI with COLO 205 colon, with MALME-3M melanoma, with MOLT-4 leukemia, with SK-MEL-28 melanoma, in the experiment with UACC-257 melanoma and in the experiment with SF-295 CNS was more than 100 µM each time. Further, the TGI in the experiment on OVCAR-8 ovarian is more than 100 µM.
Turning to `N#Cc1nc(C2SCCCS2)oc1N`, the TGI in the experiment with SK-OV-3 ovarian, with A549 NSCLC, with OVCAR-4 ovarian, in the experiment with MOLT-4 leukemia, in the experiment on MDA-MB-435 and in the experiment on SK-MEL-28 melanoma was more than 100 µM in each case. The TGI in the experiment with UACC-257 melanoma and with OVCAR-8 ovarian was more than 100 µM in each case.
With `CSC1CC2C(CC1(C)SC)C2(C)C` (stereo unspecified), the TGI is more than 100 µM with SK-OV-3 ovarian; more than 100 µM in the experiment on RXF 393 renal; more than 100 µM with A549 NSCLC; more than 100 µM with UO-31 renal; 67 µM with NCI-H460 lung; more than 100 µM with OVCAR-4 ovarian. For the same compound, the TGI in the experiment with COLO 205 colon is more than 100 µM; with MALME-3M melanoma, more than 100 µM; in the experiment on MOLT-4 leukemia it was more than 100 µM; in the experiment with SK-MEL-28 melanoma, more than 100 µM; in the experiment on UACC-257 melanoma it was 86.9 µM; with SF-295 CNS, more than 100 µM. In addition, in the experiment on OVCAR-8 ovarian, the TGI was more than 100 µM.
Take `COc1cc2c(cc1OC)C1(c3ccccc3)ON=C(c3ccccc3)N1CS2` (stereo unspecified): the TGI with SK-OV-3 ovarian, in the experiment on RXF 393 renal, in the experiment with A549 NSCLC, in the experiment with UO-31 renal, in the experiment with NCI-H460 lung and in the experiment on OVCAR-4 ovarian was more than 100 µM throughout. Also, the TGI in the experiment on COLO 205 colon, in the experiment with MALME-3M melanoma, in the experiment on MOLT-4 leukemia, with SK-MEL-28 melanoma, in the experiment with UACC-257 melanoma and with SF-295 CNS was more than 100 µM each time.
Turning to `NC(N)=NCCCC(NCc1c2ccccc2[n+]([O-])c2ccccc12)C(=O)O` (stereo unspecified), the TGI with SK-OV-3 ovarian was more than 100 µM; in the experiment on A549 NSCLC it was more than 100 µM; in the experiment on UO-31 renal, 89.8 µM; in the experiment with NCI-H460 lung, more than 100 µM; with OVCAR-4 ovarian it was more than 100 µM; in the experiment on COLO 205 colon it was more than 100 µM. In addition, the TGI in the experiment with MALME-3M melanoma, with MOLT-4 leukemia, in the experiment with SK-MEL-28 melanoma, with UACC-257 melanoma, in the experiment with SF-295 CNS and in the experiment on OVCAR-8 ovarian was more than 100 µM throughout.
